Experimental data as given in patent US10590105B2, “1,3-dihydroxy-phenyl derivatives useful as immunomodulators” (BRISTOL-MYERS SQUIBB COMPANY, priority 2016, dated 2020).

Each compound was assayed against PD-1/PD-L1 interaction (PD-1-Ig / PD-L1-His) (Homo sapiens (Human), UniProt Q9NZQ7) (assay: PD-1/PD-L1 Homogenous Time-Resolved Fluorescence (HTRF) binding assay). Settings: PD-1/PD-L1 HTRF binding assay; value given as number; read-out: Range or IC50.
Chain of PD-1/PD-L1 interaction (PD-1-Ig / PD-L1-His) (Q9NZQ7 other isoform, or with tags, fused parts or gaps): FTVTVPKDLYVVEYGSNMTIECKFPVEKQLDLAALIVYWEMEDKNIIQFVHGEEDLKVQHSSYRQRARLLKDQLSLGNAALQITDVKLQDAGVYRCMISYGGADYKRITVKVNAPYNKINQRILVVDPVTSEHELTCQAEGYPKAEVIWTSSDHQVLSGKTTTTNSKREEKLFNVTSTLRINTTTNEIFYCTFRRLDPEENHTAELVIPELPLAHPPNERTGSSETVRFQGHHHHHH
Text: The ability of the compounds of formula (I) to bind to PD-L1 was investigated using a PD-1/PD-L1 Homogenous Time-Resolved Fluorescence (HTRF) binding assay.
Homogenous Time-Resolved Fluorescence (HTRF) Binding Assay.
The interaction of PD-1 and PD-L1 can be assessed using soluble, purified preparations of the extracellular domains of the two proteins. The PD-1 and PD-L1 protein extracellular domains were expressed as fusion proteins with detection tags, for PD-1, the tag was the Fc portion of Immunoglobulin (PD-1-Ig) and for PD-L1 it was the 6 histidine motif (PD-L1-His). All binding studies were performed in an HTRF assay buffer consisting of dPBS supplemented with 0.1% […] bovine serum albumin and 0.05% (v/v) Tween-20. For the h/PD-L1-His binding assay, inhibitors were pre-incubated with PD-L1-His (10 nM final) for 15 m in 4 μl of assay buffer, followed by addition of PD-1-Ig (20 nM final) in 1 μl of assay buffer and further incubation for 15 m. HTRF detection was achieved using europium crypate-labeled anti-Ig (1 nM final) and allophycocyanin (APC) labeled anti-His (20 nM final). Antibodies were diluted in HTRF detection buffer and 5 μl was dispensed on top of the binding reaction. The reaction mixture was allowed to equilibrate for 30 minutes and the resulting signal (665 nm/620 nm ratio) was obtained using an EnVision fluorometer. Additional binding assays were established between the human proteins PD-1-Ig/PD-L2-His (20 & 5 nM, respectively) and CD80-His/PD-L1-Ig (100 & 10 nM, respectively).
Recombinant Proteins. Human PD-1 (25-167) with a C-terminal human Fc domain of immunoglobulin G (Ig) epitope tag [hPD-1 (25-167)-3S-IG] and human PD-L1 (18-239) with a C-terminal His epitope tag [hPD-L1(18-239)-TVMV-His] were expressed in HEK293T cells and purified sequentially by ProteinA affinity chromatography and size exclusion chromatography. Human PD-L2-His and CD80-His was obtained through commercial sources.
Ranges are as follows: A=0.001 to 0.010 micromolar; B=0.011 to 0.150 micromolar; C=0.151 to 10 micromolar.
An IC50 of 1570 nM was found for `Cc1c(COc2cc(OCc3cncc(C#N)c3)c(CN[C@](C)(CO)C(=O)O)cc2Cl)cccc1-c1cnc2ccc(Br)cc2n1` [Example 1010, (R)-2-((4-((3-(7-bromoquinoxalin-2-yl)-2-methylbenzyl)oxy)-5-chloro-2-((5-cyanopyridin-3-yl)methoxy)benzyl)amino)-3-hydroxy-2-methylpropanoic acid] in this work.

Same assay, conditions: PD-1/PD-L1 HTRF binding assay; value given as range class; read-out: Range or IC50
An IC50 of 1 to 10 nM was found for `Cc1c(COc2cc(OCc3cncc(C#N)c3)c(CN3CCCC[C@H]3C(=O)O)cc2Cl)cccc1-c1ccc2oc(CCN3CC[C@@H](O)C3)nc2c1` [Example 1029, (S)-1-(5-chloro-2-((5-cyanopyridin-3-yl)methoxy)-4-((3-(2-(2-((R)-3-hydroxypyrrolidin-1-yl)ethyl)benzo[d]oxazol-5-yl)-2-methylbenzyl)oxy)benzyl)piperidine-2-carboxylic acid] in this work. An IC50 of 11 to 150 nM was found for `Cc1c(COc2cc(OCc3cncc(C#N)c3)c(CNC(C)(C)C(=O)O)cc2Cl)cccc1-c1ccc2ccoc2c1` [Example 1018, 2-((4-((3-(benzofuran-6-yl)-2-methylbenzyl)oxy)-5-chloro-2-((5-cyanopyridin-3-yl)methoxy)benzyl)amino)-2-methylpropanoic acid] in this work. An IC50 of 151 to 10000 nM was found for `Cc1c(COc2cc(OCc3cncc(C#N)c3)c(CN[C@@H](CCCNC(=N)N)C(=O)O)cc2Cl)cccc1-c1ccc2occc2c1` [Example 1014, (S)-2-((4-((3-(benzofuran-5-yl)-2-methylbenzyl)oxy)-5-chloro-2-((5-cyanopyridin-3-yl)methoxy)benzyl)amino)-5-guanidinopentanoic acid] in this work. An IC50 of 1 to 10 nM was found for `Cc1c(COc2cc(OCc3cncc(C#N)c3)c(CN[C@@](C)(CO)C(=O)O)cc2Cl)cccc1-c1ccc2nccnc2c1` [Example 1036, (S)-2-((5-chloro-2-((5-cyanopyridin-3-yl)methoxy)-4-((2-methyl-3-(quinoxalin-6-yl)benzyl)oxy)benzyl)amino)-3-hydroxy-2-methylpropanoic acid] in this work. An IC50 of 11 to 150 nM was found for `Cc1c(COc2cc(OCc3cncc(C#N)c3)c(CN3CCCC[C@H]3C(=O)O)cc2Cl)cccc1-c1ccc2nccnc2c1` [Example 1032, (S)-1-(5-chloro-2-((5-cyanopyridin-3-yl)methoxy)-4-((2-methyl-3-(quinoxalin-6-yl)benzyl)oxy)benzyl)piperidine-2-carboxylic acid] in this work. An IC50 of 1 to 10 nM was found for `Cc1c(COc2cc(OCc3cncc(C#N)c3)c(CN3CCCC[C@H]3C(=O)O)cc2Cl)cncc1-c1cccc(OCCCN2CC[C@@H](O)C2)c1C` [Example 2005, (S)-1-(5-chloro-2-((5-cyanopyridin-3-yl)methoxy)-4-((5-(3-(3-((R)-3-hydroxypyrrolidin-1-yl)propoxy)-2-methylphenyl)-4-methylpyridin-3-yl)methoxy)benzyl)piperidine-2-carboxylic acid] in this work. An IC50 of 151 to 10000 nM was found for `Cc1c(COc2cc(OCc3cncc(C#N)c3)c(CN3CCCC[C@H]3C(=O)O)cc2Cl)cccc1-c1cccc(OCCCN2CC[C@@H](O)C2)n1` [Example 1030, (S)-1-(5-chloro-2-((5-cyanopyridin-3-yl)methoxy)-4-((3-(6-(3-((R)-3-hydroxypyrrolidin-1-yl)propoxy)pyridin-2-yl)-2-methylbenzyl)oxy)benzyl)piperidine-2-carboxylic acid] in this work. An IC50 of 1 to 10 nM was found for `CCC(CO)(CO)NCc1cc(Cl)c(OCc2nccc(-c3cccc(OCCCN4CCCCC4)c3C)c2C)cc1OCc1cncc(C#N)c1` [Example 2016, 5-((4-chloro-2-(((1-hydroxy-2-(hydroxymethyl)butan-2-yl)amino)methyl)-5-((3-methyl-4-(2-methyl-3-(3-(piperidin-1-yl)propoxy)phenyl)pyridin-2-yl)methoxy)phenoxy)methyl)nicotinonitrile] in this work. An IC50 of 1 to 10 nM was found for `Cc1c(COc2cc(OCc3cncc(C#N)c3)c(CN[C@](C)(CO)C(=O)O)cc2Cl)cccc1-c1ccc2oc(CCN3CC[C@@H](O)C3)nc2c1` [Example 1028, (R)-2-((5-chloro-2-((5-cyanopyridin-3-yl)methoxy)-4-((3-(2-(2-((R)-3-hydroxypyrrolidin-1-yl)ethyl)benzo[d]oxazol-5-yl)-2-methylbenzyl)oxy)benzyl)amino)-3-hydroxy-2-methylpropanoic acid] in this work. An IC50 of 11 to 150 nM was found for `Cc1c(COc2cc(OCc3cncc(C#N)c3)c(CN[C@](C)(CO)C(=O)O)cc2Cl)cccc1-c1ccc2ncsc2c1` [Example 1011, (R)-2-((4-((3-(benzo[d]thiazol-6-yl)-2-methylbenzyl)oxy)-5-chloro-2-((5-cyanopyridin-3-yl)methoxy)benzyl)amino)-3-hydroxy-2-methylpropanoic acid] in this work. An IC50 of 11 to 150 nM was found for `Cc1c(COc2cc(OCc3cncc(C#N)c3)c(CNC(C)(C)C(=O)O)cc2Cl)cccc1-c1ccc2occc2c1` [Example 1015, 2-((4-((3-(benzofuran-5-yl)-2-methylbenzyl)oxy)-5-chloro-2-((5-cyanopyridin-3-yl)methoxy)benzyl)amino)-2-methylpropanoic acid] in this work. An IC50 of 1 to 10 nM was found for `Cc1c(COc2cc(OCc3cncc(C#N)c3)c(CNC(C)(CO)CO)cc2Cl)cccc1-c1nccc(OCCCN2CC[C@@H](O)C2)c1Cl` [Example 2002, (R)-5-((4-chloro-5-((3-(3-chloro-4-(3-(3-hydroxypyrrolidin-1-yl)propoxy)pyridin-2-yl)-2-methylbenzyl)oxy)-2-(((1,3-dihydroxy-2-methylpropan-2-yl)amino)methyl)phenoxy)methyl)nicotinonitrile] in this work. An IC50 of 1 to 10 nM was found for `Cc1c(COc2cc(OCc3cncc(C#N)c3)c(CN[C@](C)(CO)C(=O)O)cc2Cl)cccc1-c1ccc2ocnc2c1` [Example 1012, (R)-2-((4-((3-(benzo[d]oxazol-5-yl)-2-methylbenzyl)oxy)-5-chloro-2-((5-cyanopyridin-3-yl)methoxy)benzyl)amino)-3-hydroxy-2-methylpropanoic acid] in this work. An IC50 of 11 to 150 nM was found for `Cc1c(COc2cc(OCc3cncc(C#N)c3)c(CN[C@](C)(CO)C(=O)O)cc2Cl)cccc1-c1ccc2cccnc2c1` [Example 1001, (R)-2-((5-chloro-2-((5-cyanopyridin-3-yl)methoxy)-4-((2-methyl-3-(quinolin-7-yl)benzyl)oxy)benzyl)amino)-3-hydroxy-2-methylpropanoic acid] in this work.
